Data taken from patent US20050026812A1, “Conjugated nitro alkene anticancer agents based on isoprenoid metabolism” (Arizona Disease Control Research Commission, priority 2003, published 2005).
Where two headings read alike, the source gives them in different places.

How the values were obtained:
Colon (Caco-2) = assay: Cancer cell growth inhibition in culture, Colon (Caco-2); format: cell-based, human; settings: 50% growth inhibition
From the text: (§1) Cancer cell growth inhibition.

Prostate (PC-3) = assay: Cancer cell growth inhibition in culture, Prostate (PC-3); format: cell-based; settings: Homo sapiens, 50% growth inhibition
From the text: as §1

Urinary bladder (T-24) = assay: Cancer cell growth inhibition in culture, Urinary bladder (T-24); format: cell-based, human; settings: 50% growth inhibition
From the text: as §1

Fibrosarcoma (HT-1080) = assay: Cancer cell growth inhibition in culture, Fibrosarcoma (HT-1080); format: cell-based, human; settings: 50% growth inhibition
From the text: as §1

[1] = biological target: T1, human recombinant protein farnesyltransferase (FTase) (Homo sapiens, UniProt P49354+P49356); assay: FTase fluorescence assay after pre-incubation with inhibitor; format: biochemical; settings: 30-minute treatment in vitro, 30° C.
T1 construct: gift from Professor Patrick Casey, Duke University
Method: Preparation of Ds-GCVLS—Ds-GCVLS was prepared by a method analogous to a published procedure. Synthesis was performed by use of a Millipore 9050 Plus PepSynthesizer that employed standard Fmoc solid phase peptide synthesis methodology. PS-PEG resin and Fmoc protected amino acids were obtained from Millipore. The N-dansylglycine was from Sigma Chemical Co. Peptide purification was performed by RP-HPLC on an Alltech Macrosphere RP300 C8 column. Elution was accomplished with a linear gradient from aqueous 10 mM trifluoroacetic acid to 10 mM trifluoroacetic acid in acetonitrile. Lyophilization yielded a pale yellow solid. […] Concentrations of Ds-GCVLS were determined by use of the extinction coefficient of the dansyl group at 340 nm (ε=4250 M-1 cm-1). […]
FTase assay—The fluoresence assay conditions were adapted from a published method. […] Enzyme activity (approximately 60 nM FTase) was monitored at saturating substrate concentrations (10 μM farnesyl diphosphate, ammonium salt, prepared by successive dilutions of a commercial 2.3 mM solution in methanol:10 mM aqueous NH4OH (7:3) into assay buffer, and 1.0 FM Ds-GCVLS) by measurement of the increase in fluorescence emission observed at λ=505 nm as FTase farnesylated Ds-GCVLS for a period of 10 min. […] All fluorescence assays were conducted in a 4 mm×4 mm quartz cuvette with excitation at 340 nm. […]

[2] = tested on: Acute myeloid leukemia (HL-60); assay: Cancer cell growth inhibition in culture, Acute myeloid leukemia (HL-60); format: cell-based, human; settings: 50% growth inhibition
From the text: as §1

Colorectal (Colo-205) = assay: Cancer cell growth inhibition in culture, Colorectal (Colo-205); format: cell-based, human; settings: 50% growth inhibition
From the text: as §1

Colon (HT-29) = assay: Cancer cell growth inhibition in culture, Colon (HT-29); format: cell-based, human; settings: 50% growth inhibition
From the text: as §1

NSC Lung (H-460) = assay: Cancer cell growth inhibition in culture, NSC Lung (H-460); format: cell-based; settings: Homo sapiens, NCI-H460, 50% growth inhibition
From the text: as §1

Lung (NCI-H460) = assay: Cancer cell growth inhibition in culture, Lung (NCI-H460); format: cell-based; settings: Homo sapiens
From the text: (§2) Compound RG-14 was also effective at inhibiting the growth of human cancer cells in culture. The GI50 values of this compound against specified human cancer cells and mouse leukemia cells grown in culture are shown in Table 2.
as §1

Mouse P388 leukemia = assay: Cancer cell growth inhibition in culture, Mouse P388 leukemia; format: cell-based; settings: read-out: ED50 (the source's name)
From the text: as §2, §1

Pancreatic (BXPC-3) = assay: Cancer cell growth inhibition in culture, Pancreatic (BXPC-3); format: cell-based; settings: Homo sapiens
From the text: as §2, §1

[3] = tested on: Central nervous system (SF268); assay: Cancer cell growth inhibition in culture, Central nervous system (SF268); format: cell-based; settings: Homo sapiens, SF-268
From the text: as §2, §1

Colon (KM20L2) = assay: Cancer cell growth inhibition in culture, Colon (KM20L2); format: cell-based; settings: Homo sapiens, KM-20L2
From the text: as §2, §1

Prostate (DU-145) = assay: Cancer cell growth inhibition in culture, Prostate (DU-145); format: cell-based; settings: Homo sapiens
From the text: as §2, §1

Breast (MCF-7) = assay: Cancer cell growth inhibition in culture, Breast (MCF-7); format: cell-based; settings: Homo sapiens, MCF7
From the text: as §2, §1

[4] = tested on: human cancer cells and mouse leukemia cells; assay: Cancer cell growth inhibition in culture, panel of Table 2; format: cell-based; settings: cell lines of Table 2
From the text: as §2, §1

GI50 (Colon (Caco-2)) | GI50 (Prostate (PC-3)) [µM] | GI50 (Urinary bladder (T-24)) | GI50 (Fibrosarcoma (HT-1080)) | decrease of FTase activity ([1]; 5 μM) [%] | inhibition at 50 µM ([1]; 50 μM) [%] | GI50 [2] | GI50 (Colorectal (Colo-205)) | GI50 (Colon (HT-29)) | GI50 (NSC Lung (H-460)) [µM] | GI50 (Lung (NCI-H460)) [µM] | EC50 (Mouse P388 leukemia) [µM] | GI50 (Pancreatic (BXPC-3)) [µM] | GI50 [3] [µM] | GI50 (Colon (KM20L2)) [µM] | GI50 (Prostate (DU-145)) [µM] | GI50 (Breast (MCF-7)) [µM] | GI50 (Colon (Caco-2); Homo sapiens, read-out: GI50) [µM] | GI50 ([2]; Homo sapiens, read-out: GI50) [µM] | SMILES | anticancer cell growth activity [4]
10^−4 to 10^−5 molar | 1.5 | 10^−4 to 10^−5 molar | 10^−6 to 10^−7 molar | 35 | 83 | 10^−6 to 10^−7 molar | 10^−4 to 10^−5 molar | 10^−4 to 10^−5 molar | 11 |  |  |  |  |  |  |  |  |  | CC(C)=CCC/C(C)=C/CCC(C)C/C=C(\C)[N+](=O)[O-] (racemic) [RG-4, 5,9,13-trimethyl-2-nitrotetradeca-2,8,12-triene] | 
 |  |  |  |  |  |  |  |  |  | 72 | 26 | 62 | 73 | 77 | 72 | 39 |  |  | CC(C)=CCCC(C)CC=C(C)[N+](=O)[O-] (racemic) [RG-14, 5,9-dimethyl-2-nitrodeca-2,8-diene] | 
 | 44 | 10^−4 to 10^−5 molar | 10^−4 to 10^−5 molar |  |  |  | 10^−4 to 10^−5 molar | 10^−4 to 10^−5 molar | 12 |  |  |  |  |  |  |  | > 100 | > 100 | CC(C)=CCCC(C)C/C=C/[N+](=O)[O-] (stereo not drawn) [RG-7, 4,8-dimethyl-1-nitronona-1,7-diene] | 
 |  |  |  |  |  |  |  |  |  | > 47 | > 126 | > 47 | > 47 | > 47 | > 47 | > 47 |  |  | CC(C)=CCCC(C)CCC(C)[N+](=O)[O-] (stereo not drawn) [SRG-8, reference compound] | did not show detectable anticancer cell growth activity
